pIC50: −log10 of the molar value.
Legend:
OVCAR-4 cells = assay: Cell proliferation assay (alamarBlue), OVCAR-4; format: cell-based, human; conditions: for pIC50: OVCAR-4, 48 h incubation
Protocol: The cell line COV362 (CVCL_2,420) was originally established from a high-grade ovarian serous adenocarcinoma from a metastatic site in the pleural effusion ([van den Berg-Bakker et al., 1993]) and was purchased from ECACC (ECACC 07071910) as p37 on 13 October 2017. The growth medium for COV362 cells was DMEM (D5546; Sigma–Aldrich GmbH), with 10% FBS (F9665; Sigma–Aldrich GmbH) and 2 mM L-glutamine (G7513; Sigma–Aldrich GmbH). COV362 cells in passages p37 + 12 to p37 + 17 were used in this study and seeded at a concentration of 3.5 cells/ml × 10^4 cells/ml for proliferation studies and at a concentration of 5.3 × 10^5/ml for migration studies. The cell line OVCAR-4 (CVCL_1,627) is a high-grade serous ovarian adenocarcinoma cell line established from a patient refractory to cisplatin ([Johnson et al., 1997]). The cell line was purchased from Merck on 19 March 2021. The growth medium for OVCAR-4 cells was RPMI-1640 (Sigma R5586) supplemented with 2 mM glutamine (G7513; Sigma–Aldrich GmbH), 10% FBS (F9665; Sigma–Aldrich GmbH), 0.25 μg/ml insulin (I9278; Sigma–Aldrich GmbH). OVCAR-4 cells in passages p+6 to p+15 were used in this study and seeded at a concentration of 6 cells/ml × 10^4 cells/ml. The control cell line HIO80 (CVCL_E274) was obtained from Andrew K. Godwin (University of Kansas Medical Center, Kansas, United States) on 20 October 2017 as p+72. It was originally established from ovarian surface epithelium ([Yang et al., 2004]). HIO80 cells were grown in RPMI medium (R5886, Sigma–Aldrich GmbH) supplemented with 10% FBS (F9665; Sigma–Aldrich GmbH), 2 mm L-glutamine (G7513; Sigma–Aldrich GmbH) and 6.6 µg/ml insulin (I9278; Sigma–Aldrich GmbH). HIO80 cells in passages p72 + 8 to p72 + 19 were used in this study and seeded at a concentration of 2 × 10^4 cells/mL. HIO80 in passage +10 was authenticated by short tandem repeats (STR) profiling performed by ATCC on 22 February 2019. Cells were grown in a humidified atmosphere containing 5% CO2 at 37°C. All cell lines were negative for mycoplasma infection which was periodically tested using MycoAlert^TM mycoplasma detection kit (Lonza, Basel, Switzerland).
The effect of ruthenium compounds on the proliferation of ovarian cancer cell lines COV362 and OVCAR-4 and the control cell line HIO80 was analyzed using the cell proliferation reagent alamarBlue HS (A50101; Thermo Fisher Scientific) following the manufacturer’s instructions.
Cells were seeded in 96-well plates in 100 µL of medium and allowed to adhere and grow for 24 h. […] Cisplatin and carboplatin purchased from Sigma–Aldrich GmbH (cat. number: PHR1624, lot: LRAB7778) and (cat. number: C2538, lot: MKCK1243) were dissolved in sterile water. Working solutions were prepared by a serial dilution of stock solutions with a culture medium. After the initial incubation, cells were treated with ruthenium complexes, cisplatin, and carboplatin. A range of final concentrations between 0.001 and 300 µM were used for ruthenium complexes and cisplatin, and between 0.001 µM and 1 mM for carboplatin. After 48 h of incubation, plates were incubated with 20 µL of alamarBlue. After 4 h absorbance was measured with a BioTek microplate spectrophotometer at 570 nm, with the reference wavelength set at 600 nm. First, the background value of a well containing the active substance without cells was subtracted, then the average values for duplicates/triplicates were calculated. The absorbance of the well containing only untreated cells was used as a normalization control. The half-maximal […] concentration (IC50) was determined for all ruthenium complexes with a growth-inhibiting effect on cells by constructing a dose-response curve (Graph Pad Prism, Version 8.0).

COV362 cells = assay: Cell migration assay (Ibidi culture inserts), COV362; format: cell-based, human; conditions: 100 μM; for effect on cell migration (in words): 24 and 48 h
Protocol: Cell migration assay was performed using Ibidi® three-well culture inserts. The inserts were placed in six-well plates. In total, 70 µL of cell suspension was seeded in the inserts and allowed to adhere and grow for 24 h. When the cells formed a confluent monolayer, the inserts were carefully removed and the cells were washed two times with DPBS. Cells were treated with 100 μM (final concentration) of compounds 8, 9, cisplatin, and carboplatin in 2 ml of growth medium. Cells treated with a medium containing the same volume of sterile water or DMSO were used as the controls. Images of cell gaps were taken with Axio Scope A1 Polarized Light Microscope (Zeiss) at the time of treatment, 24 and 48 h after, and analyzed using ImageJ software.

SMILES | fold higher IC50 value on OVCAR-4 compared to COV362 (OVCAR-4 cells) [fold] | pIC50 (OVCAR-4 cells) | effect on cell migration (in words) (COV362 cells) | cytotoxic effect in migration assay (in words) (COV362 cells; after 48 h incubation) | fold lower IC50 value on OVCAR-4 compared to COV362 (OVCAR-4 cells) [fold]
Cc1ccc(C(C)C)cc1.[Cl-].[O-]c1c(I)cc(Cl)c2cccnc12.[Ru+2] [Compound 7] | 1.6 | 4.55 | – | – | –
C1N2CN3CN1CP(C2)C3.Cc1ccc(C(C)C)cc1.F[P-](F)(F)(F)(F)F.[O-]c1c(I)cc(Cl)c2cccnc12.[Ru+2] [Compound 8] | 2.6 | 4.01 | inhibited cell migration similarly to cisplatin | – | –
Cc1ccc(C(C)C)cc1.O=[N+]([O-])c1ccc([O][Ru][Cl])c2ncccc12 [Compound 9, (η ^6-p-Cymene) (nitroxolinato)chloridoruthenium (II)] | – | 4.84 | prevented migration | cytotoxic effect | 1.5

Reference: PMC9403717, “Ruthenium complexes show potent inhibition of AKR1C1, AKR1C2, and AKR1C3 enzymes and anti-proliferative action against chemoresistant ovarian cancer cell line” (Frontiers in Pharmacology, 2022)
